In brackets after ≈: the same amount, converted by molar mass.
Assays:
Format in all cases: functional, cell-based
[1] = test system: A549; experiment: Cytotoxicity against human A549 cells by MTT assay
[2] = test system: MDA-MB-231; experiment: Cytotoxicity against human MDA-MB-231 cells by MTT assay
[3] = test system: MCF7; experiment: Cytotoxicity against human MCF7 cells by MTT assay
[4] = test system: HepG2; experiment: Cytotoxicity against human HepG2 cells by MTT assay

Question: With `C=C(CC[C@@H](C)[C@H]1CC[C@@H]([C@@H]2CC[C@H]3C[C@@H](O)CC[C@]3(C)C2=O)[C@]1(C)CCO)C(C)C` as the molecule, how does the IC50 [1] read?
Answer: 9.8 µg/mL (≈ 22.6 µM)

Question: What about the IC50 [2] of the same molecule?
Answer: 11.3 µg/mL (≈ 26.1 µM)

Question: What about the IC50 [3] of the same molecule?
Answer: 9.2 µg/mL (≈ 21.3 µM)

Question: And the IC50 [4]?
Answer: 8.2 µg/mL (≈ 19 µM)

Question: How did the IC50 [1] turn out when `C=C(CC[C@@H](C)[C@H]1CC[C@@H]([C@@H]2CC=C3C[C@@H](O)CC[C@]3(C)C2=O)[C@]1(C)CCO)C(C)C` was run?
Answer: 9.1 µg/mL (≈ 21.1 µM)

Question: And the IC50 [2]?
Answer: 9.9 µg/mL (≈ 23 µM)

Question: What about the IC50 [3] of the same molecule?
Answer: 4.5 µg/mL (≈ 10.4 µM)

Question: What about the IC50 [4] of the same molecule?
Answer: 9.1 µg/mL (≈ 21.1 µM)

Question: Which results are given for `CC(C)C(C)CC[C@@H](C)[C@H]1CC[C@@H]([C@@H]2CC=C3C[C@@H](O)CC[C@]3(C)C2=O)[C@]1(C)CCO` (stereo not given in full)?
Answer: IC50 [1]: 16.8 µg/mL (≈ 38.8 µM); IC50 [2]: 15 µg/mL (≈ 34.7 µM); IC50 [3]: 15.7 µg/mL (≈ 36.3 µM); IC50 [4]: 14.1 µg/mL (≈ 32.6 µM)

Question: `COc1cccc2c1C(=O)c1c(O)c3c(c(O)c1C2=O)C[C@@](O)(C(=O)CO)C[C@@H]3O[C@H]1C[C@H](N)[C@H](O)[C@H](C)O1` [DOXORUBICIN] was tested. Which IC50 [1] did it give?
Answer: 0.4 µg/mL (≈ 0.736 µM)

Question: What about the IC50 [3] of the same molecule?
Answer: 0.4 µg/mL (≈ 0.736 µM)

Question: And the IC50 [4]?
Answer: 0.3 µg/mL (≈ 0.552 µM)

From ChEMBL document CHEMBL1157957, “9,11-Secosterols from the soft corals Sinularia lochmodes and Sinularia leptoclados” (J Nat Prod, 2006)
